Literature values, collected in patent US9427419B2, “Compositions comprising dimethyl sulfoxide (DMSO)” (Abela Pharmaceuticals, Inc., priority 2005, dated 2016).

Legend:
cerebral blood flow = conditions: variety of brain injuries including stroke and head trauma, animals and humans
[1] = system: asymmetric dimethylarginine (ADMA); conditions: continuous intravenous infusion for 120 minutes at 0.125 g/min, angina pectoris
[2] = higher doses, from 15 to 30 grams daily
[3] = after oral administration
[4] = system: cerebral blood flow, contused brain; conditions: mice, after experimental traumatic injury
endothelin-1 = conditions: continuous intravenous infusion for 120 minutes at 0.125 g/min, angina pectoris
[5] = doses of 250 mg/Kg

## C[S+](C)[O-] [DMSO, dimethyl sulfoxide]
Hippocampal neurons
  excitotoxic death of the neurons induced by glutamate: can prevent excitotoxic death
Hippocampal neurons; DMSO concentrations 0.5-[…]
  glutamate responses in hippocampal neurons: inhibit glutamate responses
Hippocampal neurons; rapidly reversible manner
  electrophysiological responses and calcium influx induced by glutamate, NMDA and AMPA: suppresses
Cerebral blood flow
  cerebral blood flow (CBF): increase CBF

## N=C(N)NCCC[C@H](N)C(=O)O [L-arginine]
[1]
  serum levels of asymmetric dimethylarginine (ADMA): lowered the serum levels of asymmetric dimethylarginine (ADMA)
[2]
  most common adverse reactions: nausea, abdominal cramps and diarrhea
[3]
  time of peak plasma levels: 1 to 2 h
[4]
  cerebral blood flow (CBF) post-injury: increased CBF post-injury
  contusion volume: reduction in contusion volume
endothelin-1
  levels of endothelin-1: reduce the levels of endothelin-1

## N[C@@H](CC(=O)O)C(=O)O [L-aspartate]
[5]
  adverse effects: without adverse effects

## NCCCC[C@H](N)C(=O)O [L-lysine]
[5]
  adverse effects: without adverse effects
